# Laboratory results from PMC11855478, “Bicyclic N,S-Acetals Containing Fused Cysteine-Amide System as New Heterocyclic Class Targeting Human Farnesyltransferase (FTase-h)” (International Journal of Molecular Sciences, 2025).
# Assays:
# [1] = tested on: panel of 60 human cancer cell lines; assay: NCI 60 cell panel one dose screen (whole panel); type: cell-based; design: Delta (One Dose Mean Graph): unit not given here; conditions: 1.00E-5 Molar one dose; for Range (One Dose Mean Graph): in % (unit assumed); for Mean Growth Percent: mean over tested cell lines
# Experimental: (§1) 3.4. Cell Proliferation Assay
# Selected compounds were tested on a panel of 60 human cancer cell lines at the National Cancer Institute (NCI), Germantown, MD, USA. The cytotoxicity studies were conducted using a 48 h exposure protocol using the sulfo-rhodamine B assay. […]
# X. NCI One Dose Mean Graph of sulfides 4a(A -J) and 4b(A-J)
# The entire series of sulfides regrouping twenty synthesized FTI-candidates (4aA-J, 4bA-J) were selected by the National Cancer Institute (NCI) for evaluation of their antiproliferative activity against 60 cancer cell lines (see the followings twenty pages for full evaluation reports). […]
# inhibiting 36% of the NCI-H522 cells. Such difference between IC50 on human FTase in the nanomolar range and IC50 on cancer cell growth in the micromolar range is characteristic to potent FTIs and was reported previously on different series of compounds (see for example ref erence in the references part […]
# Of interest, none of the tested compounds at a high single dose (10 µM) in the full NCI 60 cell panel has shown a cytotoxic profile. […]
# inhibitory potential on FTase raise good hope for further investigation of these series as agents fighting
# HCC-2998 (Colon Cancer) = assay: NCI one dose, HCC-2998; type: cell-based, human; conditions: HCC-2998, 1.00E-5 Molar one dose
# Experimental: as §1
# (§2) Selected compounds were tested on a panel of 60 human cancer cell lines at the National Cancer Institute (NCI), Germantown, MD, USA. The cytotoxicity studies were conducted using a 48 h exposure protocol using the sulfo-rhodamine B assay.
# KM12 (Colon Cancer) = assay: NCI one dose, KM12; type: cell-based, human; conditions: KM12, 1.00E-5 Molar one dose
# Experimental: as §1, §2
# SK-MEL-2 (Melanoma) = assay: NCI one dose, SK-MEL-2; type: cell-based, human; conditions: SK-MEL-2, 1.00E-5 Molar one dose
# Experimental: as §1, §2
# SN12C (Renal Cancer) = assay: NCI one dose, SN12C; type: cell-based, human; conditions: 1.00E-5 Molar one dose
# Experimental: as §1, §2
# SF-295 (CNS Cancer) = assay: NCI one dose, SF-295; type: cell-based, human; conditions: SF-295, 1.00E-5 Molar one dose
# Experimental: as §1, §2
# COLO 205 (Colon Cancer) = assay: NCI one dose, COLO 205; type: cell-based, human; conditions: COLO 205, 1.00E-5 Molar one dose
# Experimental: as §1, §2
# [2] = tested on: NCI-H322M (Non-Small Cell Lung Cancer); assay: NCI one dose, NCI-H322M; type: cell-based, human; conditions: 1.00E-5 Molar one dose
# Experimental: as §1, §2
# BT-549 (Breast Cancer) = assay: NCI one dose, BT-549; type: cell-based, human; conditions: BT-549, 1.00E-5 Molar one dose
# Experimental: as §1, §2
# UACC-62 (Melanoma) = assay: NCI one dose, UACC-62; type: cell-based, human; conditions: UACC-62, 1.00E-5 Molar one dose
# Experimental: as §1, §2
# MALME-3M (Melanoma) = assay: NCI one dose, MALME-3M; type: cell-based, human; conditions: 1.00E-5 Molar one dose
# Experimental: as §1, §2
# [3] = tested on: EKVX (Non-Small Cell Lung Cancer); assay: NCI one dose, EKVX; type: cell-based, human; conditions: 1.00E-5 Molar one dose
# Experimental: as §1, §2
# CAKI-1 (Renal Cancer) = assay: NCI one dose, CAKI-1; type: cell-based, human; conditions: CAKI-1, 1.00E-5 Molar one dose
# Experimental: as §1, §2
# SF-268 (CNS Cancer) = assay: NCI one dose, SF-268; type: cell-based, human; conditions: SF-268, 1.00E-5 Molar one dose
# Experimental: as §1, §2
# [4] = tested on: NCI-H23 (Non-Small Cell Lung Cancer); assay: NCI one dose, NCI-H23; type: cell-based, human; conditions: NCI-H23, 1.00E-5 Molar one dose
# Experimental: as §1, §2
# T-47D (Breast Cancer) = assay: NCI one dose, T-47D; type: cell-based, human; conditions: 1.00E-5 Molar one dose
# Experimental: as §1, §2
# SF-539 (CNS Cancer) = assay: NCI one dose, SF-539; type: cell-based, human; conditions: SF-539, 1.00E-5 Molar one dose
# Experimental: as §1, §2
# SNB-19 (CNS Cancer) = assay: NCI one dose, SNB-19; type: cell-based, human; conditions: SNB-19, 1.00E-5 Molar one dose
# Experimental: as §1, §2
# ACHN (Renal Cancer) = assay: NCI one dose, ACHN; type: cell-based, human; conditions: 1.00E-5 Molar one dose
# Experimental: as §1, §2
# RXF 393 (Renal Cancer) = assay: NCI one dose, RXF 393; type: cell-based, human; conditions: RXF 393, 1.00E-5 Molar one dose
# Experimental: as §1, §2
# IGROV1 (Ovarian Cancer) = assay: NCI one dose, IGROV1; type: cell-based, human; conditions: IGROV1, 1.00E-5 Molar one dose
# Experimental: as §1, §2
# U251 (CNS Cancer) = assay: NCI one dose, U251; type: cell-based, human; conditions: U251, 1.00E-5 Molar one dose
# Experimental: as §1, §2
# K-562 leukaemia cells = assay: NCI one dose, K-562; type: cell-based, human; conditions: K-562, 1.00E-5 Molar one dose
# Experimental: as §1, §2
# CCRF-CEM (Leukemia) = assay: NCI one dose, CCRF-CEM; type: cell-based, human; conditions: 1.00E-5 Molar one dose
# Experimental: as §1, §2
# HS 578T (Breast Cancer) = assay: NCI one dose, HS 578T; type: cell-based, human; conditions: 1.00E-5 Molar one dose
# Experimental: as §1, §2
# OVCAR-4 (Ovarian Cancer) = assay: NCI one dose, OVCAR-4; type: cell-based, human; conditions: OVCAR-4, 1.00E-5 Molar one dose
# Experimental: as §1, §2
# OVCAR-5 (Ovarian Cancer) = assay: NCI one dose, OVCAR-5; type: cell-based, human; conditions: OVCAR-5, 1.00E-5 Molar one dose
# Experimental: as §1, §2
# LOX IMVI (Melanoma) = assay: NCI one dose, LOX IMVI; type: cell-based, human; conditions: 1.00E-5 Molar one dose
# Experimental: as §1, §2
# UACC-257 melanoma cells = assay: NCI one dose, UACC-257; type: cell-based, human; conditions: UACC-257, 1.00E-5 Molar one dose
# Experimental: as §1, §2
# A498 (Renal Cancer) = assay: NCI one dose, A498; type: cell-based, human; conditions: A498, 1.00E-5 Molar one dose
# Experimental: as §1, §2
# RPMI-8226 (Leukemia) = assay: NCI one dose, RPMI-8226; type: cell-based, human; conditions: RPMI-8226, 1.00E-5 Molar one dose
# Experimental: as §1, §2
# OVCAR-3 (Ovarian Cancer) = assay: NCI one dose, OVCAR-3; type: cell-based, human; conditions: OVCAR-3, 1.00E-5 Molar one dose
# Experimental: as §1, §2
# SK-OV-3 (Ovarian Cancer) = assay: NCI one dose, SK-OV-3; type: cell-based, human; conditions: SK-OV-3, 1.00E-5 Molar one dose
# Experimental: as §1, §2
Structure (SMILES),Delta (One Dose Mean Graph) [1],Range (One Dose Mean Graph) [1],Mean Growth Percent [1] [%],Growth Percent (HCC-2998 (Colon Cancer)) [%],Growth Percent (KM12 (Colon Cancer)) [%],Growth Percent (SK-MEL-2 (Melanoma)) [%],Growth Percent (SN12C (Renal Cancer)) [%],Growth Percent (SF-295 (CNS Cancer)) [%],Growth Percent [2] [%],Growth Percent (BT-549 (Breast Cancer)) [%],Growth Percent (UACC-62 (Melanoma)) [%],Growth Percent (MALME-3M (Melanoma)) [%],Growth Percent [3] [%],Growth Percent (CAKI-1 (Renal Cancer)) [%],Growth Percent (SF-268 (CNS Cancer)) [%],Growth Percent [4] [%],Growth Percent (SF-539 (CNS Cancer)) [%],Growth Percent (SNB-19 (CNS Cancer)) [%],Growth Percent (ACHN (Renal Cancer)) [%],Growth Percent (RXF 393 (Renal Cancer)) [%],also measured
C[C@@]12SC[C@@H](C(=O)NCc3cccc(C(F)(F)F)c3)N1C(=O)c1ccccc12 [4bD],25.48,41.72,94.41,110.65,99.50,85.25,93.35,92.24,100.14,100.02,87.82,99.33,98.64,80.18,102.43,99.06,99.59,99.21,95.88,105.49,Growth Percent (COLO 205 (Colon Cancer)): 104.27%; Growth Percent (T-47D (Breast Cancer)): 89.18%; Growth Percent (IGROV1 (Ovarian Cancer)): 99.72%; Growth Percent (U251 (CNS Cancer)): 94.94%; Growth Percent (K-562 leukaemia cells): 81.47%; Growth Percent (CCRF-CEM (Leukemia)): 89.45%; Growth Percent (HS 578T (Breast Cancer)): 96.99%; Growth Percent (OVCAR-4 (Ovarian Cancer)): 89.60%; Growth Percent (OVCAR-5 (Ovarian Cancer)): 104.21%; Growth Percent (LOX IMVI (Melanoma)): 100.31%; Growth Percent (UACC-257 melanoma cells): 74.68%; Growth Percent (A498 (Renal Cancer)): 85.48%; Growth Percent (RPMI-8226 (Leukemia)): 85.05%; Growth Percent (OVCAR-3 (Ovarian Cancer)): 109.46%; Growth Percent (SK-OV-3 (Ovarian Cancer)): 97.14%
COc1ccc(CNC(=O)[C@@H]2CS[C@@]3(C)c4ccccc4C(=O)N23)cc1 [4bF],24.39,39.02,96.71,101.61,96.53,93.38,101.88,93.44,107.95,106.11,93.24,111.34,106.83,85.69,98.37,96.08,105.73,99.83,101.13,95.28,Growth Percent (COLO 205 (Colon Cancer)): 108.39%; Growth Percent (T-47D (Breast Cancer)): 97.83%; Growth Percent (IGROV1 (Ovarian Cancer)): 107.92%; Growth Percent (U251 (CNS Cancer)): 93.45%; Growth Percent (K-562 leukaemia cells): 77.39%; Growth Percent (CCRF-CEM (Leukemia)): 93.94%; Growth Percent (HS 578T (Breast Cancer)): 96.39%; Growth Percent (OVCAR-4 (Ovarian Cancer)): 98.29%; Growth Percent (OVCAR-5 (Ovarian Cancer)): 107.98%; Growth Percent (LOX IMVI (Melanoma)): 102.28%; Growth Percent (UACC-257 melanoma cells): 87.83%; Growth Percent (A498 (Renal Cancer)): 96.46%; Growth Percent (RPMI-8226 (Leukemia)): 88.87%; Growth Percent (OVCAR-3 (Ovarian Cancer)): 108.61%; Growth Percent (SK-OV-3 (Ovarian Cancer)): 106.02%
C[C@@]12SC[C@@H](C(=O)NCc3ccccc3C(F)(F)F)N1C(=O)c1ccccc12 [4bC],25.73,45.90,95.29,105.71,100.49,87.91,94.74,93.93,101.48,104.97,87.36,112.02,104.01,84.55,103.76,99.44,100.26,103.86,106.49,101.10,Growth Percent (COLO 205 (Colon Cancer)): 104.03%; Growth Percent (T-47D (Breast Cancer)): 86.40%; Growth Percent (IGROV1 (Ovarian Cancer)): 103.13%; Growth Percent (U251 (CNS Cancer)): 91.69%; Growth Percent (K-562 leukaemia cells): 87.85%; Growth Percent (CCRF-CEM (Leukemia)): 88.01%; Growth Percent (HS 578T (Breast Cancer)): 94.37%; Growth Percent (OVCAR-4 (Ovarian Cancer)): 93.35%; Growth Percent (OVCAR-5 (Ovarian Cancer)): 102.51%; Growth Percent (LOX IMVI (Melanoma)): 102.39%; Growth Percent (UACC-257 melanoma cells): 73.01%; Growth Percent (A498 (Renal Cancer)): 79.95%; Growth Percent (RPMI-8226 (Leukemia)): 87.02%; Growth Percent (OVCAR-3 (Ovarian Cancer)): 115.46%; Growth Percent (SK-OV-3 (Ovarian Cancer)): 100.95%
O=C(NCc1ccc(Cl)cc1Cl)[C@@H]1CS[C@H]2c3ccccc3C(=O)N12 [4aH],24.18,40.81,97.15,102.84,99.99,99.61,98.06,95.60,91.63,97.76,85.33,107.73,100.24,101.46,98.11,99.59,106.56,97.06,99.60,105.25,Growth Percent (IGROV1 (Ovarian Cancer)): 101.47%; Growth Percent (U251 (CNS Cancer)): 95.21%; Growth Percent (K-562 leukaemia cells): 91.56%; Growth Percent (CCRF-CEM (Leukemia)): 92.66%; Growth Percent (HS 578T (Breast Cancer)): 113.78%; Growth Percent (OVCAR-4 (Ovarian Cancer)): 106.54%; Growth Percent (OVCAR-5 (Ovarian Cancer)): 104.58%; Growth Percent (LOX IMVI (Melanoma)): 100.51%; Growth Percent (UACC-257 melanoma cells): 96.52%; Growth Percent (A498 (Renal Cancer)): 101.60%; Growth Percent (RPMI-8226 (Leukemia)): 80.68%; Growth Percent (OVCAR-3 (Ovarian Cancer)): 107.79%; Growth Percent (SK-OV-3 (Ovarian Cancer)): 103.37%
